Data on eight compounds can be found in US20240294543A1, “CYCLOHEPTA-THIENO-DIAZEPINE DERIVATIVES AS GABA A GAMMA1 PAM” (Hoffmann-La Roche Inc., priority 2021, published 2024).

The target of assay [1] is human GABAA α1β3γ2 receptor (Homo sapiens (Human), UniProt P14867+P18507). Kind of assay: Radioligand binding assay, competition for [3H]Flumazenil, γ2-containing GABAA subtypes. The following applies: for γ2/γ1 Selectivity Ratio: Ki α1β3γ2 (nM)/Ki α2β2γ1 (nM); for LogSel: Log[Ki α1β3γ2 (nM)/Ki α2β2γ1 (nM)]. The method, then:
The affinity of compounds at GABAA γ2 subunit-containing receptors was measured by competition for [^3H]Flumazenil (81.1 Ci/mmol; Roche) binding to HEK293F cells expressing human (transiently transfected) receptors of composition α1β3γ2.
Harvested pellets from HEK293F cells expressing the different GABAA γ2 receptor subtypes were resuspended in Mannitol Buffer pH 7,2-7,4 and processed as described above for the cells expressing the GABAA γ1 subunit-containing receptors.
Assays were incubated to equilibrium for 1 hour at 4° C. and harvested onto GF/C uni-filters (Packard) by filtration using a Packard harvester and washing with ice-cold wash buffer (50 mM Tris; pH 7.5). After anhydrousing, filter-retained radioactivity was detected by liquid scintillation counting. Ki values were calculated using Excel-Fit (Microsoft) and are the means of two determinations.

Assay [2] addresses human GABAA α1β2γ1 receptor (Homo sapiens (Human), UniProt P14867+Q8N1C3). Kind of assay: Radioligand binding assay, competition for [3H]RO7239181, γ1-containing GABAA subtypes. Conditions: [3H]RO7239181 20-30 nM, Table 1. As for the experimental part:
(§1) The affinity of compounds at GABAA γ1 subunit-containing receptors was measured by competition for [^3H]RO7239181 (67.3 Ci/mmol; Roche) binding to membranes from HEK293F cells (ThermoFisher R79007) expressing human (transiently transfected) receptors of composition α5β2γ1, α2β2γ1, α1β2γ1.
(§2) Harvested pellets from HEK293F cells expressing the different GABAA receptor subtypes were resuspended in Mannitol Buffer pH 7.2-7.4 (Mannitol 0.29 M, Triethylamine 10 mM, Acetic acid 10 mM, EDTA 1 mM plus protease inhibitors (20 tablets Complete, Roche Diagnostics Cat. No. 05 056 489 001 per liter)), washed two times and then resuspended at 1:10 to 1:15 dilution in the same buffer. Cell disruption was performed by stirring the suspension in a Parr vessel #4637 at 435 psi for 15 minutes, and then the suspensions were centrifuged at 1000×g for 15 minutes at 4° C. (Beckman Avanti J-HC; rotor JS-4.2). The supernatant (S1) was transferred in a 21 Schott flask and the pellet (P1) was resuspended with Mannitol Buffer up to 175 ml. The resuspended pellet was transferred into a 250 ml Corning centrifugal beaker and centrifuged at 1500×g for 10 minutes at 4° C. (Beckman Avanti J-HC; rotor JS-4.2). The supernatant (S1) was then transferred in the 21 Schott flask and the pellet was discarded. The supernatants (S1) were centrifuged in 500 ml Beckman polypropylene centrifugal beaker at 15'000×g for 30 minutes at 4° C. (Beckman Avanti J-20 XP; rotor JLA-10.500). The pellet (P2) was resuspended with Mannitol Buffer 1:1 and frozen at −80° C. The supernatant (S2) was centrifuged in 100 ml Beckman polypropylene centrifugal tubes at 48000×g for 50 minutes at 4° C. (Beckman Avanti J-20 XP; rotor JA-18). The supernatant (S3) was discarded and the pellet (P3) was resuspended with 1:1 Mannitol Buffer. The P2 and P3 protein concentration was determined with the BIORAD Standard assay method with bovine serum albumin as standard and measured on the NANO-Drop 1000. The membrane suspension was aliquots (500 μl per tube) and stored at −80° C. until required.
(§3) Membrane homogenates were resuspended and polytronised (Polytron PT1200E Kinematica AG) in Potassium Phosphate 10 mM, KCl 100 mM binding buffer at pH 7.4 to a final assay concentration determined with a previous experiment.
(§4) Assays were incubated to equilibrium for 1 hour at 4° C. and then, membranes were filtered onto unifilter (96-well white microplate with bonded GF/C filters preincubated 20-50 minutes in 0.3% Polyethylenimine) with a Filtermate 196 harvester (Packard BioScience) and washed 4 times with cold Potassium Phosphate 10 mM pH 7.4, KCl 100 mM binding buffer. After anhydrousing, filter-retained radioactivity was detected by liquid scintillation counting. Ki values were calculated using Excel-Fit (Microsoft) and are the means of two determinations.

Assay [3] has as its target human GABAA α2β2γ1 receptor (Homo sapiens (Human), UniProt P47869+Q8N1C3). Described as above. Conditions: Ki h-GABAA α2β2γ1, membranes of HEK293F cells, [3H]RO7239181 20-30 nM. The method, then: as §1, §2, §3, §4
The target of assay [4] is human GABAA α5β2γ1 receptor (Homo sapiens (Human), UniProt P31644+Q8N1C3). The assay is described as above. The method, then:
The affinity of compounds at GABAA γ1 subunit-containing receptors was measured by competition for [^3H]RO7239181 (67.3 Ci/mmol; Roche) binding to membranes from HEK293F cells (ThermoFisher R79007) expressing human (transiently transfected) receptors of composition α5β2γ1, α2β2γ1, α1β2γ1. For better protein expression of the α2 subunit-containing receptors, the 28 amino acid long signal peptide (Met1 to Ala28) of the human GABAA α2 subunit was substituted by the 31 amino acid long signal peptide (Met1 to Ser31) of human GABAA α5 subunit.
as §2, §3
as §4, with “Radioligand binding assays were carried out in a volume of 200 μL (96-well plates) which contained 100 μL of cell membranes, [^3H]RO7239181 at a concentration of 1.5 nM (α5β2γ1) or 20-30 nM (α1β2γ1, α2β2γ1) and the test compound in the range of [0.3-10000]×10^−9 M. Nonspecific binding was defined by 10×10^−6 (α5β2γ1) and 30×10^−6 M RO7239181 and typically represented less than 5% (α5β2γ1) and less than 20% (α1β2γ1, α2β2γ1) of the total binding. Assays” for “Assays”

Setting [5] is: HEK293F cells, [3H]Flumazenil 1 nM, Table 1, read-out: Ki h-GABAA α1β3γ2.
Where [6] appears, read: Ki h-GABAA α1β2γ1, membranes of HEK293F cells.

SMILES strings stand for the structures. Like-named read-outs stand apart in the source and are kept apart here.

The term Ki denotes a dissociation constant, usually derived from enzyme kinetics or from competition with a known ligand.

With `C[C@@H]1N=C(c2c(F)cccc2F)c2c(sc3c2COCCO3)-n2cc(C(=O)NCC(C)(C)O)nc21` [Example 59, (7S)-9-(2,6-difluorophenyl)-N-(2-hydroxy-2-methyl-propyl)-7-methyl-13,16-dioxa-18-thia-2,5,8-triazatetracyclo[8.8.0.02,6.011,17]octadeca-1(10),3,5,8,11(17)-pentaene-4-carboxamide], the inhibition constant (Ki) stood at 1270 nM in assay [1] (setting [5]); 21.7 nM in assay [2] (setting [6]); 8.9 nM in assay [3] (Table 1); 8.9 nM in assay [3] (Table 2); 2.27 nM in assay [4]. Moreover, the “γ2/γ1 Selectivity Ratio” value in assay [1] (Table 1) came out at 142.9. The compound further gave a LogSel in assay [1] (Table 1) of 2.16.

As to `Cc1nnc2n1-c1sc3c(c1C(c1c(F)cccc1F)=N[C@H]2C)CCC[C@@H](F)C3` (single isomer, unassigned) [Example 16], the Ki amounted to 1420 nM in assay [1]; 421 nM in assay [2] (setting [6]); 89.8 nM in assay [3] (Table 1); 89.8 nM in assay [3] (Table 2); 13.6 nM in assay [4]. The “γ2/γ1 Selectivity Ratio” value in assay [1] (Table 1) stood at 15.8. This compound had a LogSel in assay [1] (Table 1) of 1.20.

As for `Cc1nnc2n1-c1sc3c(c1C(c1c(F)cccc1F)=NC2)CCOCC3` [Example 5, 9-(2,6-difluorophenyl)-3-methyl-14-oxa-18-thia-2,4,5,8-tetrazatetracyclo[8.8.0.02,6.011,17]octadeca-1(10),3,5,8,11(17)-pentaene], the inhibitory constant (Ki) is 1260 nM in assay [1]; 246 nM in assay [2] (setting [6]); 63.5 nM in assay [3] (Table 1); 63.5 nM in assay [3] (Table 2); 10.5 nM in assay [4]. Also, the “γ2/γ1 Selectivity Ratio” value in assay [1] (Table 1) stood at 19.8. The same compound showed a LogSel in assay [1] (Table 1) of 1.30.

For `Cc1nnc2n1-c1sc3c(c1C(c1c(F)cccc1F)=N[C@H]2C)CCCCC3F` (single isomer, unassigned) [Example 10], the inhibitory constant (Ki) was 1160 nM in assay [1], 18.2 nM in assay [3] (Table 1), 18.2 nM in assay [3] (Table 2) and 2.72 nM in assay [4]. Besides, the “γ2/γ1 Selectivity Ratio” value in assay [1] (Table 1) is 63.6. Besides, the LogSel in assay [1] (Table 1) was 1.80.

In the case of `C[C@@H]1N=C(c2c(F)cccc2F)c2c(sc3c2COCCC3)-n2nc(C(=O)NC[C@](C)(O)C(F)(F)F)nc21` [Example 69, (7S)-9-(2,6-difluorophenyl)-7-methyl-N-[(2S)-3,3,3-trifluoro-2-hydroxy-2-methyl-propyl]-13-oxa-18-thia-2,3,5,8-tetrazatetracyclo[8.8.0.02,6.011,17]octadeca-1(10),3,5,8,11(17)-pentaene-4-carboxamide], the inhibition constant (Ki) in assay [1] (setting [5]) is 3700 nM; in assay [3] (Table 1) it was 62 nM; in assay [3] (Table 2) it was 62 nM; in assay [4] it was 7.8 nM. In addition, the “γ2/γ1 Selectivity Ratio” value in assay [1] (Table 1) was determined as 59.7. In assay [1] (Table 1), this compound gave a LogSel of 1.78.

For the compound `[2H]C1([2H])OCc2c(sc3c2C(c2c(F)cccc2F)=N[C@@H](C)c2nc(C(=O)N4CC(OCC)C4)nn2-3)OC1([2H])[2H]` [Example 32, (3-Ethoxyazetidin-1-yl)-[(7S)-14,14,15,15-tetradeuterio-9-(2,6-difluorophenyl)-7-methyl-13,16-dioxa-18-thia-2,3,5,8-tetrazatetracyclo[8.8.0.02,6.011,17]octadeca-1(10),3,5,8,11(17)-pentaen-4-yl]methanone], the inhibition constant Ki in assay [1] (setting [5]) turned out to be 5780 nM; in assay [3] (Table 1), 7.7 nM; in assay [3] (Table 2) it was 7.7 nM; in assay [4] it was 1.88 nM. For the same compound, in assay [1] (Table 1), the “γ2/γ1 Selectivity Ratio” value stood at 747.9. In assay [1] (Table 1), the LogSel came out at 2.87.

Consider `C[C@@H]1N=C(c2c(F)cccc2F)c2c(sc3c2COCCC3)-n2nc(C(=O)NCC(C)(C)O)nc21` [Example 71, (7S)-9-(2,6-difluorophenyl)-N-(2-hydroxy-2-methyl-propyl)-7-methyl-13-oxa-18-thia-2,3,5,8-tetrazatetracyclo[8.8.0.02,6.011,17]octadeca-1(10),3,5,8,11(17)-pentaene-4-carboxamide], for which the Ki in assay [1] (setting [5]) amounted to 3920 nM; in assay [3] (Table 1) it was 80 nM; in assay [3] (Table 2), 80 nM; in assay [4] it was 7.3 nM. Further, the “γ2/γ1 Selectivity Ratio” value in assay [1] (Table 1) is listed as 49.0. In assay [1] (Table 1), this compound registered a LogSel of 1.69.

Take `[2H]C1([2H])OCc2c(sc3c2C(c2c(F)cccc2F)=N[C@@H](C)c2nc(C(=O)NCC)nn2-3)OC1([2H])[2H]` [Example 38, (7S)-14,14,15,15-tetradeuterio-9-(2,6-difluorophenyl)-N-ethyl-7-methyl-13,16-dioxa-18-thia-2,3,5,8-tetrazatetracyclo[8.8.0.02,6.011,17]octadeca-1(10),3,5,8,11(17)-pentaene-4-carboxamide]: the Ki is 4030 nM in assay [1] (setting [5]); 122 nM in assay [2] (membranes of HEK293F cells, read-out: Ki h-GABAA α1β2γ1); 17.9 nM in assay [3] (Table 1); 17.9 nM in assay [3] (Table 2); 3.59 nM in assay [4]. For the same compound, the “γ2/γ1 Selectivity Ratio” value in assay [1] (Table 1) was determined as 224.3. This compound also showed a LogSel in assay [1] (Table 1) of 2.35.
